Cc1ccc(C(=O)O)cc1
solubility (mole fraction)
Details | 278.15 K | 283.15 K | 288.15 K | 293.15 K | 298.15 K | 303.15 K | 308.15 K | 313.15 K | 318.15 K | 323.15 K
in acetone | 0.0354 | 0.041 | 0.0469 | 0.0544 | 0.062 | 0.0728 | 0.0838 | 0.0943 | 0.11 | 0.125
in acetonitrile | 0.00596 | 0.0068 | 0.00776 | 0.0087 | 0.00976 | 0.0112 | 0.0127 | 0.0146 | 0.0163 | 0.0187
in ethanol | 0.0272 | 0.0308 | 0.0346 | 0.0396 | 0.0442 | 0.05 | 0.0549 | 0.0603 | 0.0684 | 0.0765
in isopropanol | 0.0397 | 0.0437 | 0.0488 | 0.0528 | 0.0588 | 0.0648 | 0.0715 | 0.0779 | 0.0868 | 0.0959
in methanol | 0.0354 | 0.041 | 0.0485 | 0.0568 | 0.0636 | 0.0744 | 0.0865 | 0.0999 | 0.115 | 0.132
in n-butanol | 0.0359 | 0.0396 | 0.0444 | 0.051 | 0.0578 | 0.0651 | 0.0735 | 0.0836 | 0.094 | 0.105

From BigSolDB 2.1
